Residues, ends and D or L forms follow the SMILES beside them.

What all share (format): cell-based
One test deals with T1, human NMUR1 receptor (Homo sapiens, UniProt Q9HB89).
T1 construct: expressed in transfected cells; host or cells: CHO-K1
T1 sequence (Q9HB89 1-426): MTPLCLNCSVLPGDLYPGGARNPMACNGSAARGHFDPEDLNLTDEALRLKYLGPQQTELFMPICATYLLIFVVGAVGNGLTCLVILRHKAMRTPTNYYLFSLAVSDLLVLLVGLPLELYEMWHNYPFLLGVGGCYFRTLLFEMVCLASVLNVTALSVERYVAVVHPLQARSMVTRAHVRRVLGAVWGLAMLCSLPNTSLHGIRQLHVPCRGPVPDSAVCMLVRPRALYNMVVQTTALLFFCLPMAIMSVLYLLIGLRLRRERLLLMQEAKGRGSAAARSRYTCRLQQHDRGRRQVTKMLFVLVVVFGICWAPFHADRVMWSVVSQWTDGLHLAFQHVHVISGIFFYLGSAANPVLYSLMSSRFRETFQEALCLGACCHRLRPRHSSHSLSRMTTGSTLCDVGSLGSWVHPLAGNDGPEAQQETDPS
Kind of test: IP1 Gq HTRF assay, activation of human NMUR1 in buffer. Conditions: CHO-K1 cells expressing human NMUR1, stimulation buffer with 0.1% BSA; read-out: EC50 (hNMUR1) buffer. The method, boiled down:
(§1)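 CHO-K1 cells stably expressing human NMUR1 or NMUR2, seeded 24 h before assay, stimulated with peptide agonists (8-point dose-response, 1% DMSO final) in HEPES/HBSS buffer with 50 mM LiCl and 0.1% BSA, pH 7.4, 1 h at 37 °C. IP1 accumulation read by HTRF competition (665/620 nm); EC50 from 4-parameter sigmoidal fit.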

The target in test [1] is T2, human NMUR2 receptor (Homo sapiens, UniProt Q9GZQ4). Kind of test: IP1 Gq HTRF assay, activation of human NMUR2 in buffer. Further details: expressed in transfected cells; host or cells: CHO-K1. The conditions noted are these: CHO-K1 cells expressing human NMUR2, stimulation buffer with 0.1% BSA; read-out: EC50 (hNMUR2) buffer. The method in brief: as §1
T2 sequence (Q9GZQ4 whole entry): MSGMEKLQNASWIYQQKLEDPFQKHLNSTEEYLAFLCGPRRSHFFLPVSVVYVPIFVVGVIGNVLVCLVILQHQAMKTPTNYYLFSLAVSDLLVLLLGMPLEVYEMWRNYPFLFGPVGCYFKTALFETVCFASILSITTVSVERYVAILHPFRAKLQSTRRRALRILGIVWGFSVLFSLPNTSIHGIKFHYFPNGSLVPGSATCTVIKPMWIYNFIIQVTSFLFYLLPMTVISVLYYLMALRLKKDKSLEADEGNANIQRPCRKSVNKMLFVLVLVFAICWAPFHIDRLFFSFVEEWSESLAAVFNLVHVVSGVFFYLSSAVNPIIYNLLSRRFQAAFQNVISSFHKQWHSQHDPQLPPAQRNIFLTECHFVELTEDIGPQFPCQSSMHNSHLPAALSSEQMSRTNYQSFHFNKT
In test [2] the target is T2, human NMUR2 receptor. Kind of test: IP1 Gq HTRF assay, activation of human NMUR2 in human plasma. Further details: expressed in transfected cells; host or cells: CHO-K1. Conditions: CHO-K1 cells expressing human NMUR2, 100% human plasma; read-out: EC50 (hNMUR2) human plasma. The method, boiled down: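 CHO-K1 cells stably expressing human NMUR2 exposed to peptide agonists (8-point dose-response) in 100% human plasma with 50 mM LiCl, 1% DMSO, for 1 h at 37° C. IP1 accumulation read by HTRF competition (665/620 nm ratio). EC50 from 4-parameter sigmoidal fit.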

Consider `CCCC[C@H](NC(=O)[C@H](CC(C)C)N(C)C(=O)[C@H](Cc1ccccc1)NC(=O)[C@H](Cc1ccc(O)cc1)NC(=O)CN1CCN(CCNC(=O)CN(C)C(=O)CN(C)C(=O)CN(C)C(=O)CN(C)C(=O)CN(C)C(=O)CN(C)C(=O)CN(C)C(=O)CN(C)C(=O)CN(C)C(=O)CN(C)C(=O)CN(C)C(=O)CN(C)C(=O)CN(C)C(=O)CN(C)C(=O)CN(C)C(=O)CC[C@H](NC(=O)CC[C@H](NC(=O)CC[C@H](NC(=O)CCCCCCCCCCCCCCCCCCC(=O)O)C(=O)O)C(=O)O)C(=O)O)CC1)C(=O)N[C@@H](CCCN)C(=O)NCC(=O)N[C@@H](CCCNC(=N)N)C(=O)NCC(N)=O` [Compound 29, C20DA-gGlu3-Sar15-AEPipAc-Tyr-Phe-NMeLeu-Nle-Orn-Gly-Arg-Gly-NH2] (HELM PEPTIDE1{[O=C(O)CCCCCCCCCCCCCCCCCCC(=O)[*:2]].[gGlu].[gGlu].[gGlu].[Sar].[Sar].[Sar].[Sar].[Sar].[Sar].[Sar].[Sar].[Sar].[Sar].[Sar].[Sar].[Sar].[Sar].[Sar].[O=C(CN1CCN(CCN[*:1])CC1)[*:2]].Y.F.[meL].[Nle].[Orn].G.R.G.[am]}$$$$V2.0), for which the results for the EC50 at human NMUR1 receptor, at human NMUR2 receptor [1] and on human NMUR2 receptor [2] were more than 1 µM, 0.052 µM and 0.535 µM, respectively.
Regarding `CCCC[C@H](NC(=O)[C@H](CC(C)C)N(C)C(=O)[C@H](Cc1ccccc1)NC(=O)[C@H](Cc1ccc(O)cc1)NC(=O)CN1CCN(CCNC(=O)CN(C)C(=O)CN(C)C(=O)CN(C)C(=O)CN(C)C(=O)CN(C)C(=O)CN(C)C(=O)CN(C)C(=O)CN(C)C(=O)CN(C)C(=O)CN(C)C(=O)CN(C)C(=O)CN(C)C(=O)CN(C)C(=O)CN(C)C(=O)CN(C)C(=O)CC[C@H](NC(=O)CC[C@H](NC(=O)CC[C@H](NC(=O)CCCCCCCCCCCCCCCCC(=O)O)C(=O)O)C(=O)O)C(=O)O)CC1)C(=O)N[C@@H](Cc1c[nH]cn1)C(=O)N1CCC[C@H]1C(=O)N[C@@H](CCCNC(=N)N)C(=O)NCC(N)=O` [Compound 51, C18DA-gGlu3-Sar15-AEPipAc-Tyr-Phe-NMeLeu-Nle-His-Pro-Arg-Gly-NH2] (HELM PEPTIDE1{[O=C(O)CCCCCCCCCCCCCCCCC(=O)[*:2]].[gGlu].[gGlu].[gGlu].[Sar].[Sar].[Sar].[Sar].[Sar].[Sar].[Sar].[Sar].[Sar].[Sar].[Sar].[Sar].[Sar].[Sar].[Sar].[O=C(CN1CCN(CCN[*:1])CC1)[*:2]].Y.F.[meL].[Nle].H.P.R.G.[am]}$$$$V2.0), the EC50 was more than 1 µM at human NMUR1 receptor, 0.019 µM at human NMUR2 receptor [1] and 0.112 µM at human NMUR2 receptor [2].
`CCCC[C@H](NC(=O)[C@H](CC(C)C)N(C)C(=O)[C@H](Cc1ccccc1)NC(=O)[C@H](Cc1ccc(O)cc1)NC(=O)CN1CCN(CCNC(=O)CN(C)C(=O)CN(C)C(=O)CN(C)C(=O)CN(C)C(=O)CN(C)C(=O)CN(C)C(=O)CN(C)C(=O)CN(C)C(=O)CN(C)C(=O)CN(C)C(=O)CN(C)C(=O)CN(C)C(=O)CN(C)C(=O)CN(C)C(=O)CN(C)C(=O)CC[C@H](NC(=O)CC[C@H](NC(=O)CC[C@H](NC(=O)CCCCCCCCCCCCCCCCCCC(=O)O)C(=O)O)C(=O)O)C(=O)O)CC1)C(=O)N[C@@H](CCCN)C(=O)NCCC(=O)N[C@@H](CCCNC(=N)N)C(=O)NCC(N)=O` [Compound 30, C20DA-gGlu3-Sar15-AEPipAc-Tyr-Phe-NMeLeu-Nle-Orn-bAla-Arg-Gly-NH2] (HELM PEPTIDE1{[O=C(O)CCCCCCCCCCCCCCCCCCC(=O)[*:2]].[gGlu].[gGlu].[gGlu].[Sar].[Sar].[Sar].[Sar].[Sar].[Sar].[Sar].[Sar].[Sar].[Sar].[Sar].[Sar].[Sar].[Sar].[Sar].[O=C(CN1CCN(CCN[*:1])CC1)[*:2]].Y.F.[meL].[Nle].[Orn].[bAla].R.G.[am]}$$$$V2.0): the figures for the EC50 at human NMUR1 receptor, at human NMUR2 receptor [1] and on human NMUR2 receptor [2] were more than 1 µM, 0.067 µM and 0.725 µM, respectively.

These data come from patent US20240279278A1, “NMU RECEPTOR 2 AGONISTS” (Boehringer Ingelheim International GmbH, priority 2023, published 2024).
